Test results published in ChEMBL document CHEMBL5608141, “Identification of compartment-specific drug sensitivities in CRC organoid-stroma co-cultures” (2024).
Where “and” joins values, the source holds several entries; their conditions need not be identical. Equal entries are not always repeated.

How the values were obtained:
Type in all cases: functional, Homo sapiens
Set-up in all cases: dose or concentration left out as unconfirmed
[1] = system: Colon cancer organoid; assay: Identification of compartment-specific drug sensitivities in O06 CRC organoid-stroma F06 CAF co-cultures. Organoid is transduced with Lucferase2-P2A-EGFP lentivirus, fibroblast with Renilla-dsRed lentivirus. Dual-Glo Luciferase assay is used to report viability data.
[2] = system: Colon cancer organoid; assay: Identification of compartment-specific drug sensitivities in O14 CRC organoid-stroma F14 CAF co-cultures. Organoid is transduced with Lucferase2-P2A-EGFP lentivirus, fibroblast with Renilla-dsRed lentivirus. Dual-Glo Luciferase assay is used to report viability data.
[3] = system: Colon cancer organoid; assay: Identification of compartment-specific drug sensitivities in O20 CRC organoid-stroma F20 CAF co-cultures. Organoid is transduced with Lucferase2-P2A-EGFP lentivirus, fibroblast with Renilla-dsRed lentivirus. Dual-Glo Luciferase assay is used to report viability data.
[4] = Transduced with Lucferase2-P2A-EGFP lentivirus
[5] = Transduced with Renilla-dsRed lentivirus

SMILES	Cell Viability [1, 4]	Cell Viability [1, 5]	Cell Viability [2, 4]	Cell Viability [2, 5]	Cell Viability [3, 4]	Cell Viability [3, 5]
CCOc1ccn(-c2ccc(F)cc2)c(=O)c1C(=O)Nc1ccc(Oc2ccnc(N)c2Cl)c(F)c1 [BMS-777607]	91.8113%	94.0587%	88.1625%	100.395%	100.48%	72.8578%
CC(C)(C)OC(=O)N1CCCC1CNC1CCC(c2cc(F)ccc2F)(S(=O)(=O)c2ccc(Cl)cc2)CC1 (centres undefined) [GSI-NC]	96.8575%	78.4593%	112.017%	95.5535%	93.8933%	100.789%
CCOC(=O)Nc1cc(-c2ccc(C)c(NS(C)(=O)=O)c2)nn2c(C)nnc12	112.605%	266.102%	91.5211%	161.373%	38.74%	177.965%
CCN(CCO)CCCOc1ccc2c(Nc3cc(CC(=O)Nc4cccc(F)c4)[nH]n3)ncnc2c1 [DEFOSBARASERTIB]	9.138%	166.163%	12.9014%	101.396%	5.365%	225.013%
CC(C)Oc1ccc(-c2c[nH]cc2CN(C)CCN)cc1	47.5822%	178.793%	53.8658%	109.482%	47.8011%	252.195%
CC1(C)C(N)=Nc2cc(OCCCN3Cc4ccc(OCCc5cn(CC(=O)N6CCC(CCN7CCCC7)CC6)nn5)cc4C3)c(OCC3CC3)cc21	85.8179%	109.54%	112.775%	105.217%	95.5615%	161.052%
Cc1nc(NC(=O)N2CCC[C@H]2C(N)=O)sc1-c1ccnc(C(C)(C)C(F)(F)F)c1 [ALPELISIB]	74.6278%	68.5217%	47.6603%	61.6268%	70.8375%	99.8659%
Cl.Cl.c1ccc([C@@H]2C[C@H]2NC2CCNCC2)cc1	78.4875%	97.0217%	85.8382%	107.738%	42.8532%	97.3617%
CCOc1cn(-c2ccc(F)cc2C)nc1C(=O)Nc1ccc(Oc2ccnc3cc(OC)c(OC)cc23)c(F)c1	87.51% and 89.4828%	84.5689% and 64.7371%	83.4563% and 72.9507%	89.3323% and 81.5085%	229.393% and 192.525%	78.4446% and 96.4847%
Cn1cc(CNCC2CCN(c3ncc(C(=O)NO)cn3)CC2)c2ccccc21 [QUISINOSTAT]	1.095%	190.694%	6.037%	54.4916%	1.348%	37.1921%
Cl.Cl.NC1(c2ccc(-c3nc4ccn5c(=O)[nH]nc5c4cc3-c3ccccc3)cc2)CCC1	59.9467%	67.7481%	76.882%	55.4067%	44.0229%	145.22%
CN1CCN(C(=O)C(C)(C)c2ccc(C(=O)Nc3cn4cc(-c5ccncc5)ccc4n3)cc2)CC1 [T3-CLK]	27.6026%	129.967%	20.1131%	93.3356%	17.3495%	291.942%
CC(C)N(CCCNC(=O)Nc1ccc(C(C)(C)C)cc1)C[C@H]1O[C@@H](n2cc(Br)c3c(N)ncnc32)[C@H](O)[C@@H]1O	62.4885%	97.8527%	74.0278%	90.8718%	59.6009%	110.156%
Cc1c(Nc2ccc(S(=O)(=O)N3CCN(C)CC3)cc2F)nc2ccc(-c3cnn(C4CC4)c3)cn2c1=O	106.525%	138.146%	116.873%	77.7436%	100.446%	149.535%
CN(C)CC#Cc1ccc(OCCCc2sc(N3CCc4cccc(C(=O)Nc5nc6ccccc6s5)c4C3)nc2C(=O)O)c(F)c1 [A-1155463]	0.3385%	128.541%	2.034%	67.3537%	1.1769%	177.943%
C[C@H](c1ccc(F)cc1)N(Cc1ccc(Cl)c(C(=O)O)c1)C(=O)c1cnc2ccccc2c1 [PF-05257137]	94.0157%	76.638%	108.547%	109.197%	147.232%	103.742%
CC(=O)Nc1cccc(-n2c(=O)n(C3CC3)c(=O)c3c(Nc4ccc(I)cc4F)n(C)c(=O)c(C)c32)c1 [TRAMETINIB]	4.775%	48.8246%	7.5472%	16.7625%	2.051%	46.1337%
CN(C)[C@H]1CN(C2CCc3cccc(F)c32)C[C@@H]1c1ccc(N2CCN(S(C)(=O)=O)CC2)cc1 (some centres undefined)	82.1891%	127.07%	77.8807%	109.764%	31.9931%	145.189%
COc1cc2c(cc1OCCCN1CCCC1)N=C(N)C21CCC1	84.9948%	83.704%	87.6121%	63.8775%	76.3645%	100.254%
CCNC(=O)c1cc2c(N3CCOC[C@@H]3C)ccnc2n1C	84.5961%	69.3706%	116.155%	112.32%	107.341%	102.95%
O=C(NC[C@H](O)CN1CCc2ccccc2C1)c1ccnc(NC2CCC2)c1	33.1368%	110.399%	42.6769%	91.2933%	43.0801%	143.569%
CN(C)C/C=C/C(=O)Nc1cc2c(Nc3ccc(F)c(Cl)c3)ncnc2cc1O[C@H]1CCOC1.O=C(O)/C=C\C(=O)O.O=C(O)/C=C\C(=O)O [AFATINIB DIMALEATE]	26.678%	56.3894%	29.0273%	34.3509%	37.8231%	73.123%
FC(F)c1nc2ccccc2n1-c1nc(N2CCOCC2)nc(N2CCOCC2)n1 [ZSTK-474]	29.4296%	101.088%	72.7664%	74.8211%	124.253%	95.7276%
Cc1cc2c(-c3ccco3)cnc(N[C@H]3CCN(C)C[C@@H]3C(=O)NC3CCCCC3)c2[nH]c1=O [GSK791]	113.813%	153.556%	100.549%	110.493%	101.663%	116.18%
